Data set [1] has as its system orthotopic human Hep3b hepatocellular carcinoma tumors. As to the kind of experiment: Tumor growth inhibition, orthotopic Hep3b model, AFP levels and tumor weights (Example 4.3). The class given is in vivo, mice. The note with it: formulated in diamino lipid nanoparticles, iv. The procedure:
Seven to 8 weeks old female SCID/Beige mice (Shanghai Lingchang Bio-Technology Co. Ltd, Shanghai, China) were orthotopically implanted with a single 2×2×2 mm piece of a subq grown Hep3b tumor into the left liver lobe. Mice were randomized based on day 21 AFP levels. At the time of randomization, the AFP levels (ng/ml plasma) ranged between 1019 and 19779 ng/ml (median 5203, IQR=2690-9498). Treatments started on day 22 and continued for three weeks (see Table 8 for dosing scheme). AFP was measured once a week (4 times in total), and BW was measured twice a week. At the end of the study tumor weights were also determined. QDx3, QDx5=one injection per day for three or five consecutive days; BIW=twice a week; BID=twice daily; po=per oral.

The next data set deals with 4T1 mouse tumor cells. As to the kind of experiment: Re-challenge of surviving treated mice with 4T1 cells (Example 4.4). The class given is in vivo. The procedure:
To investigate the long-term immunity in miRNA-193a treated mice against 4T1 cells, on day 75 after inoculation, mice treated with miRNA-193a and 8 naïve (non-tumor bearing) mice were re-challenged by subcutaneous injection of 3×10^5 4T1 mouse tumor cells in PBS (0.1 mL/mouse) into the right front flank. TV and BW were monitored for 3 weeks. Then, to investigate the immunization status of miRNA-193a treated mice against other cell types, on day 101, mice treated with miRNA-193a and 8 naïve (non-tumor bearing) mice were re-challenged by subcutaneous injection of H22 (mouse liver tumor cells) cells in PBS (0.1 mL/mouse) into the right lower flank.

Another data set concerns 4T1. As to the kind of experiment: Caspase 3/7 apoptosis assay. The class given is cell-based, mouse. The conditions noted are these: 10 nM, normalized to mock. The procedure: Depending on cancer cell type 3000-6000 cells were seeded in a 96 well plate. After cells attached, they were transfected with different concentrations of miRNA-193a and apoptosis induction was measured at different time points. This assay was performed using Promega kit. 100 uL of caspase reagent was added to 100 uL of media in each well in 96-well plate and incubated for 2 hours in the dark at room temperature. The luminescent signal was read on a luminescent plate reader.
Different biological effects of miRNA-193a-3p have been tested in various cancer cell lines (see Table 13). For this, various cells were treated with miRNA-193a at different concentrations (1, 3, 10 nM). For all experiments controls (untreated, mock and scrambled) were measured. All assays were performed at 24h, 48h and 72h time points. Data shown in Table 13 are the results for miRNA-193a at 10 nM concentration at indicated time points. All the results have been quantified and normalized to the mock control.
miRNA-193a treatment in various cancer cell lines decreased cell viability over time as measured by either an MTS assay or by cell count. It enhanced apoptosis induction over time as measured by a caspase 3/7 apoptosis assay. […] It is of note that due to intrinsic characteristics and gene mutation status of each cell line, performing one method to detect apoptosis is not always ideal for all cell lines.

The subject of a further data set is A2058 cells. As to the kind of experiment: In vitro transwell migration assay. The class given is cell-based, human. The note with it: miRNA-193a-3p at 10 nM; vs scrambled. As for the experimental part: To check the migratory ability of cells, a Boyden Chamber assay was performed, which is based on a chamber of two medium-filled compartments separated by a […] pore size membrane (BD falcon). In this assay, depending on cell type 60,000-120,000 cells were seeded in the upper compartment of the membrane in serum free medium and were allowed to migrate through the pores of the membrane into the lower compartment, in which serum is present in the media. The serum acts as a chemoattractant. After an appropriate incubation time, the membrane between two compartments was fixed, stained and 6 different images from each membrane were taken. The number of migratory cells were counted using Image J analysis.
To assess the impact of miRNA-193a-3p on adenosine generation, the release of free phosphate in A2058 melanoma cells was measured as a read out for ATP, ADP, and AMP dephosphorylation in supernatants. […] Similar results were found by measuring the direct amount of adenosine in cell culture supernatants (FIG. 16B). Further, the role of miRNA-193a in A2058 cancer cell migration was investigated.

Another data set deals with B16-F10 Melanoma. As to the kind of experiment: Primary tumor growth, syngeneic model. The class given is in vivo, mice. The conditions noted are these: 10 mg/kg i.v BIW x 3-4 weeks, vs PBS. An excerpt: (§1) In this study, the effect of miRNA-193a formulated in diamino lipid nanoparticles was investigated on the primary tumor growth in a panel of twelve syngeneic tumor models. Six to eight weeks mice (Shanghai Lingchang Bio-Technology Co. Ltd, Shanghai, China) were subcutaneously injected with an appropriate number of syngeneic cancer cells, depending on the cancer model (see Table 18). At the time of randomization, tumor volume (TV) was approximately 80-120 mm^3. Body weights and TVs (caliper measurements) were determined 2-3 times/week. After randomization (indicated as day 0) mice received PBS or miR-193a (formulated in diamino lipid nanoparticles) treatments as shown in Table 19. Each tumor model had two groups as depicted in Table 19. Mice were scheduled to be euthanized after two weeks of follow up after a maximum of four weeks of treatment.

In the next data set the test system is CT26 Colon carcinoma. As to the kind of experiment: Primary tumor growth, syngeneic model. The class given is in vivo, mice. The note with it: 10 mg/kg i.v BIW x 3-4 weeks, vs PBS.
Text: as §1

The subject of data set [2] is EMT-6 Breast mammary carcinoma. As to the kind of experiment: Primary tumor growth, syngeneic model. The class given is in vivo, mice. The conditions noted are these: 10 mg/kg i.v BIW x 3-4 weeks, vs PBS.
Text: as §1

A further data set concerns Hepa 1-6 Hepatoma. As to the kind of experiment: Primary tumor growth, syngeneic model. The note with it: 10 mg/kg i.v BIW x 3-4 weeks, vs PBS. The class given is in vivo, mice.
Text: as §1

The subject of a further data set is LL/2 Lung carcinoma. As to the kind of experiment: Primary tumor growth, syngeneic model. The conditions noted are these: 10 mg/kg i.v BIW x 3-4 weeks, vs PBS. The class given is in vivo, mice.
Text: as §1

Another data set has as its system MC38 Colon carcinoma. As to the kind of experiment: Primary tumor growth, syngeneic model. The class given is in vivo, mice. The conditions noted are these: 10 mg/kg i.v BIW x 3-4 weeks, diamino lipid nanoparticles, vs PBS, median tumor volume.
Text: as §1

The subject of the next data set is RM-1 Prostate cancer. As to the kind of experiment: Primary tumor growth, syngeneic model. The class given is in vivo, mice. The note with it: 10 mg/kg i.v BIW x 3-4 weeks, vs PBS.
Text: as §1

The test system of data set [3] is Renca Renal adenocarcinoma. As to the kind of experiment: Primary tumor growth, syngeneic model. The class given is in vivo, mice. The conditions noted are these: 10 mg/kg i.v BIW x 3-4 weeks, vs PBS.
Text: as §1

As to “miRNA-193a: duplex of the miRNA-193a-3p of SEQ ID NO: 218 (mimic, sense) with antisense strand SEQ ID NO: 219; naked in vitro, formulated in vivo (sense UGGGACUUUGUAGGCCAGUUTT; antisense AACUGGCCUACAAAGUCCCAGU; chemistry not given here; listed as Homo sapiens)”, in [1], the “TGI effects (AFP levels, tumor weights)” value was “significant TGI effects”. Moreover, the “Treated mice that showed tumor take when re-challenged with 4T1 cells” value in the data set with 4T1 mouse tumor cells (re-challenge day 75) was found to be 3 mice. Moreover, the “Tumor take/growth after re-challenge with 4T1 cells” value in the data set with 4T1 mouse tumor cells (re-challenge day 75, 14 days post end of treatment, vs naïve mice) was “Pronounced prevention of tumor take/growth”. In the data set on 4T1, the “Apoptosis (48/72 h)” value is given as “↑ (Induction < 2x)”. Moreover, the “Migration ability of A2058 cells” value in the data set on A2058 cells is listed as “significantly suppressed migration ability”. Also, the “% TGI by miRNA-193a” value in the data set with B16-F10 Melanoma is listed as 56%; in the data set with CT26 Colon carcinoma, 12%; in data set [2], 42%; in the data set on Hepa 1-6 Hepatoma, 7%; with LL/2 Lung carcinoma, 64%; in the data set with MC38 Colon carcinoma it was 71%. Also, the “% TGI by miRNA-193a” value in the data set on RM-1 Prostate cancer worked out at 25%; in data set [3], 22%.

Values taken from patent US20210038732A1, “ANTICANCER MICRORNA AND LIPID FORMULATIONS THEREOF” (INTERNA TECHNOLOGIES B.V., priority 2018, published 2021).
